Measured values from patent US5994357A, “Method of treatment for interstitial cystitis” (priority 1994, dated 1999).
Counter-ions that a name gives are not always drawn.

Columns and labels:
[1] = assay type: in vivo, human (female patients); settings: for relief by previous treatment: six DMSO treatments and one heparin treatment
Method: They were administered a 75 mg oral dose of hydroxyzine pamoate per day. After 5 days the burning sensation upon voiding and sharp pelvic pain disappeared. In two months, the extreme tenderness from their chest area to pelvic area also disappeared. After about 10 to 12 weeks frequency was eliminated. […] Upon discontinuing administration of hydroxyzine pamoate symptoms reappeared within 24 hours or less. After one year of treatment, the subject takes 50 mg and 25 mg of hydroxyzine pamoate, respectively, on alternating days, with continued 100% success.
This person three was diagnosed with interstitial cystitis in March 1989. […] Their symptoms included constant burning in the bladder, pain at the connection of the buttocks with the upper legs and painful sexual intercourse. They could not sleep although their need to urinate was only about four times per night. Sitting on "blue ice" packs wrapped in a cloth provided some relief from the buttock pain and the burning.
This is person one who experienced increasing problems over the last 10 years until it became difficult to function as a nurse, parent and spouse. […] They had not received any treatment since February 1990 and was experienceing a flare up of symptoms when they tried hydroxyzine-HCl. […]

Rat Bladder Mast Cells = test: ID20 for histamine release, inhibition of mast cell secretion by H-1 receptor antagonists in vitro (Table 5); assay type: cell-based; settings: inhibitory dose causing 20% inhibition, read-out: ID20 for Histamine Release from Rat Bladder Mast Cells
Excerpt: "Inhibitor of neurohormonal activation of mast cell secretion" refers to any substance or group of substances, devoid of any psychotropic effects which prevent the stimulation of mast cell secretion by hormones or molecules produced by nervous tissue.
(§1) More appropriate to interstitial cystitis, bladder mast cells can be triggered to secrete in situ using slices of rodent bladders in perfusion chambers and measuring secreted chemicals (Theoharides, T. C. and Sant, G. R. Bladder mast cell activation in interstitial cystitis. Seminars Urology 9:74-87, 1991).

bladder mast cells = test: Inhibition of neurohormonal activation of bladder mast cell secretion; assay type: cell-based; settings: for inhibition of neurohormonal activation of bladder mast cell secretion (in words): found by the applicant
Excerpt: "Inhibitor of neurohormonal activation of mast cell secretion" refers to any substance or group of substances, devoid of any psychotropic effects which prevent the stimulation of mast cell secretion by hormones or molecules produced by nervous tissue. Whether or not a pharmacologically active substance is an inhibitor of neurohormonal activation of mast cell secretion can be determined by using the following procedure: Mast cells purified from peritoneal cavities of rats and stimulated by a neuropeptide, such as somatostatin (Theoharides, T. C. and Douglas, W. W. Endocrinology 102:1637-1640, 1978), or rat brain slices stimulated by substance P in special perfusion chambers (Dimitriadou, V., Buzzi, M. G., Moskowitz, M. A. and Theoharides, T. C. Neuroscience 44:27-39, 1991) or rat bladder mast cells stimulated by carbachol in special perfusion chambers (Theoharides, T. C. and Sant, G. R. Seminars Urology […], 1991) will first be […] with concentration of the agents to be tested ranging from 0.1 μmol/L-to-100 μmol/L of solution for varying amounts of time at 37° C. to determine their ability to inhibit subsequent mast cell secretion as described above.
These compounds can be tested by preincubating mast cells purified from the peritoneal cavity of rats with various concentrations of compound, typically 0.1 μmol/L to 1,000 μmol/L, for various times at 37° C. before stimulating mast ctll secretion with a stimulus such as somatostatin (Theoharides, T. C. and Douglas, W. W. Somatostatin induces histamine secretion from rat peritoneal mast cells. Endocrinology 102:1637-1640, 1978).
as §1

[2] = cited from earlier work
[3] = cited from earlier work; remark: listed apart in the source
neurons = test: Inhibition of neuropeptide release from neurons stimulated by high K^+; assay type: cell-based
[4] = Anticholinergic and anxiolytic properties; settings: decreasing frequency
[5] = Example 2, patient three, since March 1991
[6] = Example 2, patient three, 25 mg
[7] = Example 1, patient two, 75 mg oral per day

In the case of `OCCOCCN1CCN(C(c2ccccc2)c2ccc(Cl)cc2)CC1` (racemic) [hydroxyzine-HCl], the “pain on sexual intercourse” value ([1]; Example 2, patient three) is reported as “no longer associated with severe bladder pain”, the quality of life ([1]; Example 2, patient three) is reported as “definitely improved the quality of their life” and the “tolerance of offending foods” value ([1]; Example 2, patient three) is reported as “they can eat some offending foods in small quantities”. The “burning in the bladder” value [1, 5] was “the burning has subsided significantly”, the buttock pain [1, 5] was “the buttock pain is reduced” and the “symptoms on attempted withdrawal of the drug” value ([1]; Example 3, patient one, 2 or 3 occasions) was “definite increase in interstitial cystitissymptoms”. The bladder comfort ([1]; Example 3, patient one, 25 to 50 mg daily) was “almost total bladder comfort” and the control of symptoms ([1]; Example 3, patient one, daily since May 1990) was “remarkable control of symptoms”.

In the case of `CN1CCC(=C2c3ccccc3CCc3cccnc32)CC1` [Azatadine], the IC20 (Rat Bladder Mast Cells) is reported as 1000 nM and the “inhibition of neurohormonal activation of bladder mast cell secretion (in words)” value (bladder mast cells) is reported as “inhibit neurohormonal activation of bladder mast cell secretion”.

In the case of `CN1CCCC(n2nc(Cc3ccc(Cl)cc3)c3ccccc3c2=O)CC1` (stereo not drawn) [Azelastine], the IC20 (Rat Bladder Mast Cells) is reported as 1000 nM and the “inhibition of neurohormonal activation of bladder mast cell secretion (in words)” value (bladder mast cells) is reported as “inhibit neurohormonal activation of bladder mast cell secretion”.

For `C[S+](C)[O-]` [DMSO, dimethylsulfoxide], the “relief by previous treatment” value ([1]; Example 2, patient three) is listed as “very limited relief”, the “improvement by previous treatment” value ([1]; Example 3, patient one) is listed as “fairly good improvement” and the pulmonary excretion ([2]; intravesical) is listed as “pulmonary excretion of a small percentage of the DMSO as dimethyl sulfide”. For the same compound, the “side effects: bladder and urethra” value ([3]; intravesical) was “Bladder spasms and irritability may be experienced with DMSO treatment, as well as urethral burning during voiding” and the “side effects: breath odor and taste” value ([3]; intravesical, most patients) was “garlic-like breath odor and a similar taste in their mouths”.

In the case of `OCCOCCN1CCN(C(c2ccccc2)c2ccc(Cl)cc2)CC1` (stereo not drawn) [Hydroxyzine], the IC20 (Rat Bladder Mast Cells) is reported as 50000 nM, the “inhibition of secretion from stimulated bladder mast cells (in words)” value (bladder mast cells; Table 3, unique characteristics) is reported as “inhibits secretion from stimulated bladder mast cells” and the “inhibition of neurohormonal activation of bladder mast cell secretion (in words)” value (bladder mast cells) is reported as “inhibit neurohormonal activation of bladder mast cell secretion”. The “inhibition of neuropeptide release from neurons (in words)” value (neurons) was “inhibits neuropeptide release from neurons”, the “anticholinergic properties (in words)” value [4] was “strong anticholinergic properties decreasing frequency” and the “relief from frequency, dysuria, pain” value ([1]; 9 females, 25 mg twice - three times/day × 8 months, alternate 25 mg every other day past 8 months) was 80-100%. The “Problems (side effects)” value ([1]; human, in vivo) was “Mild sedation, weakness × 1 week”.

For `CN1CCC(=C2c3ccccc3CC(=O)c3sccc32)CC1` [Ketotifen], the “inhibition of neurohormonal activation of bladder mast cell secretion (in words)” value (bladder mast cells) was “inhibit neurohormonal activation of bladder mast cell secretion”.

With `CN(C)CCC=C1c2ccccc2CCc2ccccc21` [amitriptyline] the “success of previous treatment” value ([1]; Example 1, patient two, conventional methods and amitriptyline) was “limited success”, the “effect of previous treatment on sleep” value [1, 6] was “enabled them to sleep some” and the “foods bringing symptoms on previous treatment” value [1, 6] was “many foods still brought severe symptoms”. For the same compound, the side effects ([3]; human, in vivo) was “troublesome side effects such as hypotension, tachycardia, anxiety, or palpitations”.

In the case of `O=C(O)COCCN1CCN(C(c2ccccc2)c2ccc(Cl)cc2)CC1` (stereo not drawn) [cetirizine], the “inhibition of neurohormonal activation of bladder mast cell secretion (in words)” value (bladder mast cells) is reported as “inhibit neurohormonal activation of bladder mast cell secretion”.

For `OCCOCCN1CCN(C(c2ccccc2)c2ccc(Cl)cc2)CC1` (stereo not drawn) [hydroxyzine pamoate], the patient-reported state ([1]; Example 1, patient two) was “felt 100% normal”, the “time to reappearance of symptoms upon discontinuing administration” value ([1]; Example 1, patient two) was at most 24 h and the “time to disappearance of burning sensation upon voiding and sharp pelvic pain” value [1, 7] was 5 days. The “time to disappearance of extreme tenderness from chest area to pelvic area” value [1, 7] was “two” and the “continued success after one year of treatment” value ([1]; Example 1, patient two, 50 mg and 25 mg on alternating days) was 100%.

In the case of `CN(C)CCN(Cc1ccccc1)c1ccccn1` [pyribenzamine], the “duration of the response” value ([3]; oral, 50 mg three times daily) is given as “variable” and the symptomatic improvement ([3]; oral, 50 mg three times daily) is given as “some symptomatic improvement”.

In the case of heparin, the “relief by previous treatment” value ([1]; Example 2, patient three) is reported as “very limited relief”.

For sodium pentosan polysulfate, the duration ([2]; must be taken numerous times per day) is given as “short duration”, the “amount of drug reaching the site of treatment” value ([2]; oral) is given as “only a small amount of the drug will reach the site of treatment” and the metabolism ([2]; oral) is given as “primarily liver-metabolized”. For the same compound, the “replacement of the protective surface mucin” value ([3]; oral or intravesical administration) was “replace the protective surface mucin”.
